Data: ChEMBL document CHEMBL1201862, “PubChem BioAssay data set” (2004)
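Five compound concentrations were applied to cells in 96-well plates for 48 hours; endpoints were derived by simple linear interpolation of the resulting dose-response curve. GI50 is the concentration that inhibits growth by half.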 The source made the active and inactive calls. Rule as the data show it: active = GI50 up to about 1.1 µM and inactive = higher.

Experiments:
Test in all cases: DTP human tumour cell line panel, 48 h
IGROV-1 = tested on: IGROV-1
DU-145 = tested on: DU-145
SF-295 = tested on: SF-295
KM12 = tested on: KM12
HCT-15 = tested on: HCT-15
SR = tested on: SR
A549 = tested on: A549
OVCAR-8 = tested on: OVCAR-8
NCI-H226 = tested on: NCI-H226
U-251 = tested on: U-251
MOLT-4 = tested on: MOLT-4
M14 = tested on: M14
NCI-H23 = tested on: NCI-H23
ACHN = tested on: ACHN
SK-MEL-28 = tested on: SK-MEL-28
SF-539 = tested on: SF-539
MDA-MB-435 = tested on: MDA-MB-435
SK-MEL-2 = tested on: SK-MEL-2
MDA-N = tested on: MDA-N
MDA-MB-231 = tested on: MDA-MB-231

| SMILES | GI50 (IGROV-1) | GI50 (DU-145) | GI50 (SF-295) | GI50 (KM12) | GI50 (HCT-15) | GI50 (SR) | GI50 (A549) | GI50 (OVCAR-8) | GI50 (NCI-H226) | GI50 (U-251) | GI50 (MOLT-4) | GI50 (M14) | GI50 (NCI-H23) | GI50 (ACHN) | GI50 (SK-MEL-28) | GI50 (SF-539) | GI50 (MDA-MB-435) | GI50 (SK-MEL-2) | GI50 (MDA-N) | GI50 (MDA-MB-231) |
| --- | --- | --- | --- | --- | --- | --- | --- | --- | --- | --- | --- | --- | --- | --- | --- | --- | --- | --- | --- | --- |
| CC(C)(CCC(C)(C)c1ccccc1)c1ccccc1 | 24.9 µM (inactive) | 18.4 µM (inactive) | 17 µM (inactive) | 15.3 µM (inactive) | 20.9 µM | 21 µM (inactive) | 28.8 µM (inactive) | 27 µM (inactive) | 20.7 µM (inactive) | 16.7 µM (inactive) | 18.5 µM (inactive) | 18.7 µM (inactive) | 18.2 µM (inactive) | 17.8 µM (inactive) | 20 µM (inactive) | 21.1 µM (inactive) | 21.9 µM (inactive) | 16.6 µM (inactive) | 22.2 µM (inactive) | 16.7 µM (inactive) |
| O=C(NO)c1ccc(OCc2cccc(Cl)c2)cc1 | 6.67 µM (inactive) | 7.59 µM (inactive) | 9.33 µM (inactive) | 11.9 µM (inactive) | 4.57 µM | 2.16 µM (inactive) | 8.18 µM (inactive) | 3.01 µM (inactive) | 11.9 µM (inactive) | 11.6 µM (inactive) | 2.62 µM (inactive) | 12.9 µM (inactive) | 5.3 µM (inactive) | 4.57 µM (inactive) | 12.3 µM (inactive) | 8.11 µM (inactive) | 6.67 µM (inactive) | 12.8 µM (inactive) | 10.1 µM (inactive) | 12.1 µM (inactive) |
| COc1ccc(CNC(C)C(=O)O)cc1 (stereo not given) | > 100 µM (inactive) | > 100 µM (inactive) | > 100 µM (inactive) | > 100 µM (inactive) | > 100 µM | > 100 µM (inactive) | > 100 µM (inactive) | > 100 µM (inactive) | > 100 µM (inactive) | > 100 µM (inactive) | > 100 µM (inactive) | > 100 µM (inactive) | > 100 µM (inactive) | > 100 µM (inactive) | > 100 µM (inactive) | > 100 µM (inactive) | > 100 µM (inactive) | > 100 µM (inactive) | > 100 µM (inactive) | > 100 µM (inactive) |
| c1ccc2c(c1)c1c(n2CCOCCN2CCCCC2)CCCC1 | 13.9 µM (inactive) | 17.1 µM (inactive) | 16.2 µM (inactive) | 13 µM (inactive) | 14.1 µM | 13.8 µM (inactive) | 15.1 µM (inactive) | 14 µM (inactive) | 21.7 µM (inactive) | 16.9 µM (inactive) | 10.5 µM (inactive) | 12.8 µM (inactive) | 15.2 µM (inactive) | 14.2 µM (inactive) | 24.6 µM (inactive) | 16.6 µM (inactive) | 12.8 µM (inactive) | 8.77 µM (inactive) | 14.8 µM (inactive) | 11.8 µM (inactive) |
| N#CCN(Cc1ccccc1)[C@@H]1CCC[C@]1(O)C#Cc1ccc2c(c1)OCO2 | 17.1 µM (inactive) | 27.4 µM (inactive) | 19.8 µM (inactive) | 15.2 µM (inactive) | 21.8 µM | 17.8 µM (inactive) | 18.5 µM (inactive) | 16.7 µM (inactive) | 18.6 µM (inactive) | 17.9 µM (inactive) | 16.4 µM (inactive) | 16.8 µM (inactive) | 16.4 µM (inactive) | 18 µM (inactive) | 17.1 µM (inactive) | 11.7 µM (inactive) | 18.5 µM (inactive) | 16.4 µM (inactive) | 17.5 µM (inactive) | 16.9 µM (inactive) |
| CCOC(=O)c1sc2nc(SC)nc(Nc3ccc4c(c3)OCCCO4)c2c1N | > 100 µM (inactive) | 31.8 µM (inactive) | 8.95 µM (inactive) | 24.2 µM (inactive) | 10.9 µM | 16.7 µM (inactive) | 8.47 µM (inactive) | 11.4 µM (inactive) | 42.2 µM (inactive) | 46.5 µM (inactive) | 2.55 µM (inactive) | 17.3 µM (inactive) | 5.92 µM (inactive) | 26.9 µM (inactive) | > 100 µM (inactive) | 14.3 µM (inactive) | 11.1 µM (inactive) | 62.5 µM (inactive) | 20.5 µM (inactive) | 33 µM (inactive) |
